Read-outs that look alike come from different tables or passages of the source.
Legend:
[1] = cited from earlier work
[2] = cited from earlier work; remark: listed apart in the source
[3] = Detection of Glu in artificial urine by TPEDB; conditions: TPEDB 50 μM, carbonate buffer with artificial urine
Experimental: To explore the potential of TPEDB for real-world applications, the possibility of using TPEDB for detection of Glu in urine was tested. […] The profile of the I/I0 versus [Glu] plot for the urine Glu, however, was different from that for the “pure” Glu (in the carbonate buffer without urine) in the high-[Glu] region. Although the exact reason for this is unclear at the present time, it may be caused by the interactions of urea, α-hydroxycarboxylic acids, and salts in the urine with the boronate units of TPEDB.
An artificial urine was prepared according to the recipe reported by Keevil et al. and Whitesides et al (C. W. Keevil, et al, Lett. Appl. Microbiol. 1997. 24, 203; G. M. Whitesides, et al, Proc. Natl. Acad. Sci. U.S.A. 2008, 105, 19606). 1.1 mM Lactic acid, 2.0 mM citric acid, 25 mM sodium bicarbonate, 170 mM urea, 2.5 mM calcium chloride, 90 mM sodium chloride, 2.0 mM magnesium sulfate, 7.0 mM potassium dihydrogen phosphate, 7.0 mM dipotassium hydrogen phosphate, 10 mM sodium sulfate, and 25 mM ammonium chloride were mixed in deionized water. The pH value of the solution was adjusted to 6.0 by the addition of 1.0 M hydrochloric acid. […]
An aliquot (1 mL) of the artificial urine solution with a desired concentration of Glu was added to 2 mL solution of TPEDB (100 μM) in the carbonate buffer containing 4 vol % DMSO. […] FL spectrum of the mixture was measured after stirring for 30 min.

[4] = FL response of TPE boronic acid probe to D-glucose in carbonate buffer
Experimental: The present subject matter in one embodiment relates to a selective detection of D-glucose (D-Glu) by TPEDB probe in a sample with its fluorescence enhancement. The concentration or level of D-Glu detectable in a sample is not particularly limited, but is preferably about 0.2 mM or more. […] When 0.2 mM Glu was added, however, the FL spectrum of TPEDB was intensified. The FL intensity increased with an increase in the amount of Glu. At [Glu]=5 mM, the solution of TPEDB became very emissive, with an intensity ca. 5.4-fold higher than that in the absence of Glu.
(§1) Into a 100 mL volumetric flask were added 1.120 g of K2CO3, 0.190 g of KHCO3 and 80 mL of deionized water. After adding 3 mL of DMSO into the carbonate buffer, 1 mL of the stock solution of TPEDB in DMSO (10 mM) was added under stirring. The volume of the solution was increased to 100 mL by adding an appropriate amount of deionized water. The resultant solution of TPEDB (0.1 mM) in the carbonate buffer (pH 10.5) was stirred for 15 min before use.
Into a 25 mL volumetric flask was added 90 mg of a saccharide (Glu, Fru, Gal or Man) and 25 mL of deionized water. An aliquot of the resultant stock solution (20 mM) was diluted in another volumetric flask to obtain a sample solution with a desired concentration (2.0 mM, 0.20 mM, 20 μM or 2.0 μM).
An aliquot (2.0 mL) of the stock solution of TPEDB (0.1 mM) in the carbonate buffer containing 4 vol % DMSO and 2.0 mL of the stock solution of Glu (20 mM) were added into a 10 mL volumetric flask. After shaking for a few seconds, a solution of TPEDB (50 μM) with 10 mM of Glu in the carbonate buffer containing 2 vol % DMSO was obtained. The solution was allowed to stand for 30 min before its FL measurement.
To prepare a solution of TPEDB (50 μM) with 8 mM of Glu in the carbonate buffer containing 2 vol % DMSO, 1.6 mL of the stock solution of Glu (20 mM) and 0.4 mL of deionized water were added to 2.0 mL of a stock solution of TPEDB (0.1 mM) in the carbonate buffer containing 4 vol % DMSO.

[5] = Miscibility / solubility of TPEDB in aqueous media; type: physicochemical
Excerpt: (§2) The light emission of TPEDB started to decrease in intensity when the pH of the buffer was raised to >8.61 and became very weak at pH≧9.74. Since the pKa of PBA is ca. 9, TPEDB was ionized by the alkaline medium and became soluble in the buffers with high pH. The solutions of TPEDB were virtually nonfluorescent, while its aggregates were highly emissive, proving that TPEDB, like its parent form TPE, is AIE-active.

[6] = FL intensity of TPEDB in Britton-Robinson buffers at different pH; type: physicochemical
Experimental: as §2
as §1, with “4.0 mg NaOH” for “1.120 g of K2CO3, 0.190 g of KHCO3”, “NaOH solution (0.001M) containing 4 vol % DMSO” for “carbonate buffer (pH 10.5)”
Into a 100 mL volumetric flask were added 4.611 H3PO4, 2.402 g CH3COOH, and 2.473 g B(OH)3, and the volume of the solution was increased to 100 mL by adding appropriate amount of deionized water. The resultant solution of the acid mixture (0.4 M) was stirred for 15 min before use. Into a 100 mL volumetric flask was added 1.600 g NaOH, and the volume of the solution was increased to 100 mL by adding appropriate amount of deionized water. The resultant solution of base (0.4 M) was stirred for 15 min before use. An aliquot (0.4 mL) of the solution of acid mixture (0.4 M) and appropriate amount of the solution of NaOH (0.4 M) from 0 mL to 1.6 mL were added into a 10 mL volumetric flask. The volume of the solution was increased to 2.0 mL by adding an appropriate amount of deionized water. The resultant standard Britton-Robinson buffer (0.08 M) with various pH was left to stand for a few minutes before use.
An aliquot (2.0 mL) of the stock solution of TPEDB (0.1 mM) in the NaOH solution (0.001M) containing 4 vol % DMSO and 2.0 mL of the standard Britton-Robinson buffer (0.08 M) with various pH were added into a 10 mL volumetric flask. After shaking for a few seconds, solutions of TPEDB (50 μM) with various pH in the Britton-Robinson buffer containing 2 vol % DMSO were obtained. The solutions were allowed to stand for 30 min, and their FL spectra were measured before the pH values were measured using pH-meter.

[7] = FL response of TPEDB to Glu in the presence of a saccharide interferent
Experimental: In the presence of Fru, the FL spectrum of TPEDB was gradually intensified by the addition of Glu, but the rate of increase in the intensity was lower because of the competition between Glu and Fru to bind with TPEDB. Similarly, Gal and Man interfered with the FL response of TPEDB to Glu, although the effects were smaller.
Solutions of Glu (40 mM-4.0 μM), Fru (0.4 mM), Gal (0.4 mM) and Man (0.4 mM) in deionized water were prepared. An aliquot (2.0 mL) of the solution of TPEDB (0.1 mM) in the carbonate buffer containing 4 vol % DMSO was added into a 10 mL volumetric flask, followed by the addition of 1.0 mL of a solution of Fru (0.4 mM) and 1.0 mL of a solution of Glu (40 mM). After shaking for a few seconds, a solution of TPEDB (50 μM) with 10 mM of Glu and 0.1 mM of Fru in the carbonate buffer containing 2% DMSO was obtained. The solution was allowed to stand for 30 min before its FL measurement. The solution of TPEDB and Glu containing another saccharide (Gal or Man) was prepared by similar procedures.

[8] = FL response of probe to D-fructose in carbonate buffer
[9] = FL response of probe to D-galactose in carbonate buffer; conditions: TPEMB 10 μM, 10 vol % DMSO, any amount
[10] = FL response of probe to D-mannose in carbonate buffer; conditions: TPEMB 10 μM, 10 vol % DMSO, any amount
[11] = Britton-Robinson buffer, 2 vol % DMSO

## OB(O)c1ccccc1 [PBA, phenylboronic acid]
[1]
  pKa: ca. 9
[2]; Fru
  Ka,sugar/Ka,Glu: 34.8
[2]; Gal
  Ka,sugar/Ka,Glu: 3.3
[2]; Man
  Ka,sugar/Ka,Glu: 2.8

## OB(O)c1ccc(C(=C(c2ccccc2)c2ccc(B(O)O)cc2)c2ccccc2)cc1 [TPEDB, (1,2-diphenylethene-1,2-diyl)bis(1,4-phenylene)-1,1′-diboronic acid]
[3]
  Effect of Glu in artificial urine on FL spectrum: augmented its FL spectrum
[4]; TPEDB 50 μM, carbonate buffer pH 10.5
  Glu concentration at which the FL spectrum of TPEDB was intensified (below it almost no change): 0.2 mM
[4]; TPEDB 50 μM, carbonate buffer pH 10.5, intensity decreases above
  [Glu] at which FL intensity reaches its maximum: 5 mM
[5]; alkaline aqueous media containing small amount of DMSO
  Solubility in alkaline aqueous media: readily soluble
[5]; water
  Miscibility with water: immiscible with water
[6]
  pH below which the luminogen is highly emissive: < 9.0
[6]; [11]
  pH above which light emission started to decrease in intensity: > 8.61
  pH at which light emission became very weak: ≥ 9.74
[6]; pH 4.34
  Emission of aggregates suspended in acidic buffer: strong blue light
[7]; 0.1 mM Fru, Gal or Man interferent, TPEDB 50 μM, carbonate buffer
  Interference of the isomeric saccharides to the FL response to Glu: almost no interference
[7]; suggested from interference data
  Affinity order of saccharide to TPEDB: Fru>Gal≈Man>Glu
[8]; 10 mM Fru, TPEDB in carbonate buffer
  Change of emission spectrum on addition of Fru: only slightly intensified

## OB(O)c1ccc(C(=C(c2ccccc2)c2ccccc2)c2ccccc2)cc1 [TPEMB, 4-(1,2,2-triphenylvinyl)phenylboronic acid]
[9]
  Emission on addition of Gal: remained nonemissive
[4]; TPEMB 10 μM, carbonate buffer, 10 vol % DMSO, wide [Glu] range
  Change in FL spectrum on addition of Glu: little change
[10]
  Emission on addition of Man: remained nonemissive
[8]; TPEMB 10 μM, carbonate buffer, 10 vol % DMSO, any amount
  Emission on addition of Fru: remained nonemissive

Reference: patent publication US9051598B2, “Specific detection of D-glucose by a tetraphenylethene-base fluorescent sensor” (THE HONG KONG UNIVERSITY OF SCIENCE AND TECHNOLOGY, priority 2011, dated 2015)
